Measured values from patent US7423017B2, “Method for treating cartilage disorders” (Genentech, Inc., priority 1997, dated 2008).
Values belong to the compound of their own block, whether it stands above or below them. Positions of bridges follow the written chain, without caps; N, C: chain ends. Residues, ends and D or L forms follow the SMILES beside them. No end group written: not given here.

What was measured:
IGFBP-1 [1] = target: T1, IGFBP-1 (Homo sapiens, UniProt P08833); test: BIAcore competition assay: IGFBP-1 binding to IGF-I; set-up: made in house; host or cells: CHO cells; settings: for Fold potency reduction IC50 (BP1-01) / IC50 (mut): locked-helix variants
T1 sequence (P08833 26-259): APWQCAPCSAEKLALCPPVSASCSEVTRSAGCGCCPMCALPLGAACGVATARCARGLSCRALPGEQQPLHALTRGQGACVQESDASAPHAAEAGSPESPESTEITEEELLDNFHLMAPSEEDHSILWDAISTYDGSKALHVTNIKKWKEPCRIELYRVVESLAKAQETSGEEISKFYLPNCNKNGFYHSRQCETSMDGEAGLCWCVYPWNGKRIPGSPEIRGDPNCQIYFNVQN
Experimental: Two series of synthetic peptide variants were generated to determine which side chains of the BP1-01 peptide might contribute directly to binding IGFBP-1. In the first series an alanine-scanning approach (Cunningham and Wells, Science, 244: 1081-1085 (1989)) was used to remove that portion of each side chain beyond the beta carbon. The contribution of these atoms to the free energy of binding of the peptide to IGFBP-1 was then assessed by measuring the potency (IC50) of the variant for inhibiting IGFBP-1 binding to IGF-I or IGF-II in a BIAcore™ competition assay, analogous to that described for IGFBP-3.
Peptides were assayed in a BIAcore™ assay as described in WO 98/45427, supra. These inhibition assays (FIG. 35) compared the relative potency of these peptides for blocking the interaction of IGFBP-1 with IGF-1.
The peptide BP1-625 fraction was lyophilized and resuspended in 100 mM HEPES buffer, pH 7.2.

IGFBP-1 [2] = target: T1, IGFBP-1; test: KIRA cell-based assay of IGF-like activity displaced by peptides from IGF-1/IGFBP-1; settings: 2 nM IGF-1, […] IGFBP-1
Experimental: A cell-based (KIRA) assay was previously described for measuring the amount of IGF-like activity displaced by peptides from mixtures of IGF-1 and binding proteins (Lowman et al., supra, 1998; WO 98/45427, supra). The KIRA assay was used to compare in vitro bioactivity of BP1-16, BP1-02, BP1-25, and BP1-40. […] IGF-1 and peptide were mixed and added to cells expressing IGF receptor for 30 min, then IGFBP-1 was added for an additional 1 h.

IGFBP-1 [3] = target: T1, IGFBP-1; test: BIAcore direct binding kinetics of peptides on immobilized IGFBP-1; set-up: made in house; host or cells: CHO cells; settings: for Kd: koff/kon, BIAcore kinetics, read-out: KD ± (SD or SE)
Excerpt: WO 98/45427 published Oct. 15, 1998 discloses the preparation and characterization of the IGFBP-1 displacer peptide BP1-01 ([…]) (SEQ ID NO:26). The kinetics of BP1-01 peptide variants were examined in a BIAcore™ (BIAcore, Inc., Piscataway, N.J.) assay using IGFBP-1 covalently coupled via EDC/NHS (as described by the manufacturer) to a dextran chip. […] The latter implies a half-life for peptide dissociation from IGFBP-1 of approximately 28 sec. The association rate constant is moderately fast, consistent with the notion that the peptide may not undergo significant conformation change upon binding to IGFBP-1.
Inhibition assays for measuring relative potencies of peptides for inhibiting IGFBP-1 binding to IGF-I have been described (e.g., WO 98/45427, supra). Peptides described herein were of sufficient binding affinity to allow for direct measurement of binding affinities by surface plasmon resonance (SPR) using a BIACORE™ system. The direct binding kinetics of IGFBP-1 peptides were measured by injecting a series of 2-fold diluted peptides in running buffer (0.05% TWEEN 20™ in PBS) over a carboxy-methyl (CM) biosensor chip coupled with about 590-1000 RU of IGFBP-1 at a flow rate of 50 μl/min on a BIACORE 2000™ or BIACORE 3000™ surface-plasmon-resonance instrument. The immobilization of IGFBP-1 was performed through EDC/NHS chemistry as described by the manufacturer. Peptides were also injected through a flow cell containing IGFBP-3 as background control. Since the off-rate for most of the peptides is relatively fast (in the range of 2×10^−2 s^−1), off-rate measurement was set for 30 minutes. This allowed for regeneration of IGFBP-1 on the chip by simple dissociation, rather than by addition of eluent. For each dilution of peptides, a global fit of the sensorgram data was performed using a 1:1 Langmuir binding model.

IGFBP-3 [4] = target: T2, IGFBP-3 (Homo sapiens, UniProt P17936); test: phage-ELISA competition assay of g3 peptide-phage clones; assay type: binding; settings: g3 monovalent display
T2 construct: made in house
Excerpt: A third clone, 3Ai.2, represents a new peptide sequence that was not identified from g8 display.

IGFBP-3 [5] = target: T2, IGFBP-3; test: IGF-1 blocking phage assay: peptide-phage binding to coated IGFBP-3 with/without IGF-1; settings: 100 nM IGF-1; 50-fold dilution of phage
Experimental: IGFBP-3 was coated directly onto MAXISORP198 plates as above. Phage from clonal cultures were mixed with IGF-1 (100 nM final concentration), and incubated with the immobilized IGFBP-3 for 1 hour at room temperature. The plates were then washed ten times, as above, and a solution of rabbit anti-phage antibody mixed with a goat-anti-rabbit conjugate of horseradish peroxidase was added. After an incubation of 1 hour at room temperature, the plates were developed with a chromogenic substrate, o-phenylenediamine (Sigma). The reaction was stopped with addition of ½ volume of 2.5 M H2SO4. Optical density at 490 nm was measured on a spectrophotometric plate reader.
In each case, the phagemid clone was grown from a single colony overnight at 37° C. in a culture volume of 5 ml. The phage particles were precipitated and resuspended in 0.5 ml of PBS buffer. A 50-fold dilution of each phage solution was made into PBS/TWEEN™ buffer, and the phage were incubated with or without 100 nM IGF-1 on an IGFBP-3-coated MAXISORP™ plate.
In each case, the phagemid clone was grown from a single colony overnight at 37° C. in a culture volume of 5 ml. The phage particles were prepared as described above.

T2 sequence (P17936 28-291): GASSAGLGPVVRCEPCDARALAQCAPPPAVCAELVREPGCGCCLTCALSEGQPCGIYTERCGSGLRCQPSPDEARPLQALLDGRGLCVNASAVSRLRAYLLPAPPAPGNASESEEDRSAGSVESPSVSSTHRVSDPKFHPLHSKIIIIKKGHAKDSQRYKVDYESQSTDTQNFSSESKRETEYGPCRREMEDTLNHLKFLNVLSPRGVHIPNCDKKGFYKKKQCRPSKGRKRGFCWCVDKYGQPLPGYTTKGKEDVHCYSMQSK

Compound: CC(C)C[C@@H]1NC(=O)[C@H](Cc2c[nH]c3ccccc23)NC(=O)[C@H](CCC(N)=O)NC(=O)[C@H](CC(C)C)NC(=O)[C@@H]2CCCN2C(=O)CNC(=O)[C@H](C)NC(=O)[C@H](CCCNC(=N)N)NC(=O)[C@@H](NC(=O)CNC(=O)[C@@H](NC(=O)[C@H](CCC(=O)O)NC(=O)[C@@H](N)CO)C(C)C)CSSC[C@@H](C(=O)N[C@@H](CCC(=O)O)C(=O)N[C@@H](CCCCN)C(=O)N[C@@H](Cc2ccc(O)cc2)C(=O)N[C@@H](Cc2ccccc2)C(=O)NCC(=O)O)NC1=O [BP1-02] (H-SEVGCRAGPLQWLCEKYFG-OH; disulfide 5-14; N-terminus and C-terminus assumed)
EC20 (concentration at which 20% of maximal IGF-1 activity is observed) (IGFBP-1 [2]): 150 to 200 nM
half-life for peptide dissociation from IGFBP-1 (IGFBP-1 [3]): approximately 28 sec
Kd (IGFBP-1 [3]): 210 ± 46 nM
kon (IGFBP-1 [3]; peptide on immobilized IGFBP-1, read-out: association rate constant): 230000 M⁻¹ s⁻¹

Compound: CC(C)C[C@@H]1NC(=O)[C@H](Cc2c[nH]c3ccccc23)NC(=O)[C@H](CCC(N)=O)NC(=O)[C@H](CC(C)C)NC(=O)[C@@H]2CCCN2C(=O)CNC(=O)[C@H](C)NC(=O)[C@H](CCCNC(=N)N)NC(=O)[C@@H](NC(=O)[C@@H](NC(=O)[C@H](CCCNC(=N)N)NC(=O)[C@H](C)NC(=O)[C@@H](N)CCC(=O)O)C(C)C)CSSC[C@@H](C(=O)N[C@@H](CCC(=O)O)C(=O)N[C@@H](CCCCN)C(=O)N[C@@H](Cc2ccc(O)cc2)C(=O)N[C@@H](Cc2ccccc2)C(=O)N[C@@H](CO)C(=O)N[C@H](C(=O)N[C@@H](Cc2ccc(O)cc2)C(=O)O)[C@@H](C)O)NC1=O [BP1-25] (H-EARVCRAGPLQWLCEKYFSTY-OH; disulfide 5-14; N-terminus and C-terminus assumed)
EC20 (concentration at which 20% of maximal IGF-1 activity is observed) (IGFBP-1 [2]): 10 to 20 nM
Kd (IGFBP-1 [3]): 42 ± 11 nM

Compound: CC(C)C[C@@H]1NC(=O)[C@H](Cc2c[nH]c3ccccc23)NC(=O)[C@H](CCC(N)=O)NC(=O)[C@H](CC(C)C)NC(=O)[C@@H]2CCCN2C(=O)CNC(=O)[C@H](C)NC(=O)[C@H](CCCNC(=N)N)NC(=O)[C@@H](NC(=O)[C@H](CO)NC(=O)[C@H](CCC(N)=O)NC(=O)[C@H](CCC(N)=O)NC(=O)CN)CSSC[C@@H](C(=O)N[C@@H](CCC(=O)O)C(=O)N[C@@H](CCCCN)C(=O)N[C@@H](Cc2ccc(O)cc2)C(=O)N[C@@H](Cc2ccccc2)C(=O)N[C@@H](CO)C(=O)N[C@H](C(=O)N[C@@H](Cc2ccc(O)cc2)C(=O)O)[C@@H](C)O)NC1=O [BP1-40] (H-GQQSCRAGPLQWLCEKYFSTY-OH; disulfide 5-14; N-terminus and C-terminus assumed)
EC20 (concentration at which 20% of maximal IGF-1 activity is observed) (IGFBP-1 [2]): 10 to 20 nM
Kd (IGFBP-1 [3]): 27 ± 21 nM

Compound: EESECFEGPGYVICGLVG [g3-4B3.3]
apparent affinity in phage-ELISA competition assays (IGFBP-3 [4]): < 100 nM

Compound: SGGAIYMPVEQFIAFMAVGK [23A3.5]
inhibited for binding to IGFBP-3 (phage clone with vs without IGF-1) (IGFBP-3 [5]): about 20%

Compound: SGGAIYWPVEQFIAFMAVGK [23A3.3]
inhibited for binding to IGFBP-3 (phage clone with vs without IGF-1) (IGFBP-3 [5]): about 20%

Compound: VAWEVCWDRHDQGYICTTDS [g3-4D3.11]
apparent affinity in phage-ELISA competition assays (IGFBP-3 [4]): < 100 nM

Compound: acLEWLAEKYFE (Ac-LEWLAEKYFE; bridge 2-10) [(i + 8)A]
Fold potency reduction IC50 (BP1-01) / IC50 (mut) (IGFBP-1 [1]): >200

Compound: acRAGPLEWLAEKYEG (Ac-RAGPLEWLAEKYEG; bridge 6-13; not fully specified) [(i + 7)D]
Fold potency reduction IC50 (BP1-01) / IC50 (mut) (IGFBP-1 [1]): 8

Compound: acRAGPLEWLAEKYFE (Ac-RAGPLEWLAEKYFE; bridge 6-14; not fully specified) [(i + 8)C]
Fold potency reduction IC50 (BP1-01) / IC50 (mut) (IGFBP-1 [1]): 6

Now from value to compound:

Fold potency reduction IC50 (BP1-01) / IC50 (mut) (IGFBP-1 [1]): 1
Compound: CC(C)C[C@@H]1NC(=O)[C@H](Cc2c[nH]c3ccccc23)NC(=O)[C@H](CCC(N)=O)NC(=O)[C@H](CC(C)C)NC(=O)[C@@H]2CCCN2C(=O)CNC(=O)[C@H](C)NC(=O)[C@H](CCCNC(=N)N)NC(=O)[C@@H](N)CSSC[C@@H](C(=O)N[C@@H](CCC(=O)O)C(=O)N[C@@H](CCCCN)C(=O)N[C@@H](Cc2ccc(O)cc2)C(=O)N[C@@H](Cc2ccccc2)C(=O)NCC(N)=O)NC1=O [BP1-01] (H-CRAGPLQWLCEKYFG-NH2; disulfide 1-10)

Kd (IGFBP-1 [3]): 33 ± 15 nM
Compound: CC(C)C[C@@H]1NC(=O)[C@H](Cc2c[nH]c3ccccc23)NC(=O)[C@H](CCC(N)=O)NC(=O)[C@H](CC(C)C)NC(=O)[C@@H]2CCCN2C(=O)CNC(=O)[C@H](C)NC(=O)[C@H](CCCNC(=N)N)NC(=O)[C@@H](NC(=O)[C@@H](NC(=O)[C@H](CCCNC(=N)N)NC(=O)[C@H](C)NC(=O)[C@@H](N)CCC(=O)O)C(C)C)CSSC[C@@H](C(=O)N[C@@H](CCC(=O)O)C(=O)N[C@@H](CCCCN)C(=O)N[C@@H](Cc2ccc(O)cc2)C(=O)N[C@@H](Cc2ccccc2)C(N)=O)NC1=O [BP1-20] (H-EARVCRAGPLQWLCEKYF-NH2; disulfide 5-14; N-terminus assumed)

IGF-I Inhibition IC50 (114)/IC50 (mut) (IGFBP-1 [1]; relative to BP1-14): 3
Kd (IGFBP-1 [3]): 41 ± 17 nM
Compound: CC(C)C[C@@H]1NC(=O)[C@H](Cc2c[nH]c3ccccc23)NC(=O)[C@H](CCC(N)=O)NC(=O)[C@H](CC(C)C)NC(=O)[C@@H]2CCCN2C(=O)CNC(=O)[C@H](C)NC(=O)[C@H](CCCNC(=N)N)NC(=O)[C@@H](NC(=O)CNC(=O)[C@@H](NC(=O)[C@H](CCC(=O)O)NC(=O)[C@@H](N)CO)C(C)C)CSSC[C@@H](C(=O)N[C@@H](CCC(=O)O)C(=O)N[C@@H](CCCCN)C(=O)N[C@@H](Cc2ccc(O)cc2)C(=O)N[C@@H](Cc2ccccc2)C(=O)N[C@@H](CO)C(=O)N[C@H](C(=O)N[C@@H](Cc2ccc(O)cc2)C(N)=O)[C@@H](C)O)NC1=O [BP1-21A] (H-SEVGCRAGPLQWLCEKYFSTY-NH2; disulfide 5-14; N-terminus assumed)

improved potency over BP1-01 (IGFBP-1 [1]; 9-10 nM IGFBP-1): about 20 fold
Compound: GQQSCAAGPLQWLCEHYFSTYGR (disulfide 5-14 (inferred)) [BP1-625]

inhibited for binding to IGFBP-3 (phage clone with vs without IGF-1) (IGFBP-3 [5]): 5%
Compound: VAWEVCWDRHDQGYICTTDS [4D3.11]

Fold potency reduction IC50 (BP1-01) / IC50 (mut) (IGFBP-1 [1]): 8
Compound: acRPLEWLAEKYFE (Ac-RPLEWLAEKYFE; bridge 4-12) [(i + 8)B]
